3 h FOB score data for 25 substances are collected here from the OligoGym collection.

HELM strings list units from the 5' end as sugar, base in round brackets, then linkage (d deoxyribose, r ribose, m 2'-O-methyl, p phosphodiester). Strings are as the collection lists them; they lack the last nucleoside at the 3' end of the tested compound. [moe] = 2'-O-(2-methoxyethyl) (MOE); [sp] = phosphorothioate linkage; [m5C] = 5-methylcytosine

The data set deals with UBE3A-ATS. Nature of the data set: mouse, dose not given. Particulars: ASO.

Substance “RNA1{[moe](T)[sp].[moe]([m5C])p.[moe](A)p.[moe](T)p.[moe]([m5C])p.[moe](T)[sp].d([m5C])[sp].d(G)[sp].d(G)[sp].d(G)[sp].d(T)[sp].d(A)[sp].d(T)[sp].d(A)[sp].[moe](T)p.[moe](A)[sp].[moe](A)}$$$$ (last 3' nucleoside missing)” showed a 3 h FOB score of 2.3 score 0-7.
Take “RNA1{[moe](T)[sp].[moe]([m5C])p.[moe](A)p.[moe](T)p.[moe]([m5C])p.[moe](T)p.d([m5C])[sp].d(G)[sp].d(G)[sp].d(G)[sp].d(T)[sp].d(A)[sp].d(T)[sp].d(A)[sp].d(T)[sp].d(A)[sp].[moe](A)p.[moe](A)[sp].[moe](T)}$$$$ (last 3' nucleoside missing)”: the 3 h FOB score came to 2 score 0-7.
Next, “RNA1{[moe](T)[sp].[moe]([m5C])p.[moe](A)p.[moe](T)p.[moe]([m5C])p.d(T)[sp].d([m5C])[sp].d(G)[sp].d(G)[sp].d(G)[sp].d(T)[sp].d(A)[sp].d(T)[sp].d(A)[sp].d(T)[sp].[moe](A)p.[moe](A)p.[moe](A)[sp].[moe](T)}$$$$ (last 3' nucleoside missing)”: 3.3 score 0-7.
Under “RNA1{[moe](T)[sp].[moe]([m5C])p.[moe](A)p.[moe](T)p.d([m5C])[sp].d(T)[sp].d([m5C])[sp].d(G)[sp].d(G)[sp].d(G)[sp].d(T)[sp].d(A)[sp].d(T)[sp].d(A)[sp].[moe](T)p.[moe](A)p.[moe](A)p.[moe](A)[sp].[moe](T)}$$$$ (last 3' nucleoside missing)” stands 4 score 0-7; under “RNA1{[moe](T)[sp].[moe]([m5C])p.[moe](A)p.[moe]([m5C])[sp].d([m5C])[sp].d(A)[sp].d(T)[sp].d(T)[sp].d(T)[sp].d(T)[sp].d(G)[sp].d(A)[sp].[moe]([m5C])p.[moe]([m5C])p.[moe](T)p.[moe](T)[sp].[moe]([m5C])}$$$$ (last 3' nucleoside missing)”, 0.3 score 0-7; under “RNA1{[moe](T)[sp].[moe]([m5C])p.[moe](A)p.[moe]([m5C])p.[moe](A)p.d(T)[sp].d(T)[sp].d(A)[sp].d([m5C])[sp].d([m5C])[sp].d([m5C])[sp].d(A)[sp].d(T)[sp].d([m5C])[sp].d([m5C])[sp].[moe](G)p.[moe](T)p.[moe](T)[sp].[moe]([m5C])}$$$$ (last 3' nucleoside missing)”, 0 score 0-7.
Under “RNA1{[moe](T)[sp].[moe]([m5C])p.[moe](A)p.[moe]([m5C])p.[moe](T)p.d(G)[sp].d(A)[sp].d(G)[sp].d(T)[sp].d(T)[sp].d(T)[sp].d(T)[sp].d(T)[sp].d(G)[sp].d(T)[sp].[moe](A)p.[moe](G)p.[moe](T)[sp].[moe](T)}$$$$ (last 3' nucleoside missing)” stands 3.7 score 0-7.
In turn, “RNA1{[moe](T)[sp].[moe]([m5C])p.[moe](A)p.[moe]([m5C])p.[moe]([m5C])[sp].d(A)[sp].d(T)[sp].d(T)[sp].d(T)[sp].d(T)[sp].d(G)[sp].d(A)[sp].d([m5C])[sp].[moe]([m5C])p.[moe](T)p.[moe](T)[sp].[moe]([m5C])}$$$$ (last 3' nucleoside missing)” had a 3 h FOB score of 2 score 0-7.
Next, “RNA1{[moe](T)[sp].[moe]([m5C])p.[moe](A)p.[moe]([m5C])p.[moe]([m5C])p.[moe](A)[sp].d(T)[sp].d(T)[sp].d(T)[sp].d(T)[sp].d(G)[sp].d(A)[sp].d([m5C])[sp].d([m5C])[sp].[moe](T)p.[moe](T)[sp].[moe]([m5C])}$$$$ (last 3' nucleoside missing)”: 0.3 score 0-7.
Next, “RNA1{[moe](T)[sp].[moe]([m5C])p.[moe](A)p.[moe]([m5C])p.[moe]([m5C])p.[moe](A)p.d(T)[sp].d(T)[sp].d(T)[sp].d(T)[sp].d(G)[sp].d(A)[sp].d([m5C])[sp].d([m5C])[sp].d(T)[sp].d(T)[sp].[moe]([m5C])p.[moe](T)[sp].[moe](T)}$$$$ (last 3' nucleoside missing)”: 1 score 0-7.
On to “RNA1{[moe](T)[sp].[moe]([m5C])p.[moe](A)p.[moe]([m5C])p.[moe]([m5C])p.d(A)[sp].d(T)[sp].d(T)[sp].d(T)[sp].d(T)[sp].d(G)[sp].d(A)[sp].d([m5C])[sp].d([m5C])[sp].d(T)[sp].[moe](T)p.[moe]([m5C])p.[moe](T)[sp].[moe](T)}$$$$ (last 3' nucleoside missing)”, for which the 3 h FOB score was determined as 1 score 0-7.
“RNA1{[moe](T)[sp].[moe]([m5C])p.[moe](A)p.[moe]([m5C])p.d([m5C])[sp].d(A)[sp].d(T)[sp].d(T)[sp].d(T)[sp].d(T)[sp].d(G)[sp].d(A)[sp].d([m5C])[sp].d([m5C])[sp].[moe](T)p.[moe](T)p.[moe]([m5C])p.[moe](T)[sp].[moe](T)}$$$$ (last 3' nucleoside missing)” had a 3 h FOB score of 2 score 0-7.
For “RNA1{[moe](T)[sp].[moe]([m5C])p.[moe](G)p.[moe](G)p.[moe](A)p.d(T)[sp].d(A)[sp].d(T)[sp].d(A)[sp].d(G)[sp].d([m5C])[sp].d(T)[sp].d(T)[sp].d(T)[sp].d(T)[sp].[moe](A)p.[moe]([m5C])p.[moe](A)[sp].[moe](T)}$$$$ (last 3' nucleoside missing)”, the 3 h FOB score came to 1 score 0-7.
In the case of “RNA1{[moe](T)[sp].[moe]([m5C])p.[moe](T)p.[moe](G)p.[moe](G)p.d(A)[sp].d(A)[sp].d(T)[sp].d([m5C])[sp].d(T)[sp].d(T)[sp].d(G)[sp].d(T)[sp].d(A)[sp].d(G)[sp].[moe](A)p.[moe](G)p.[moe](G)[sp].[moe](A)}$$$$ (last 3' nucleoside missing)”, the 3 h FOB score came to 2.7 score 0-7.
The substance “RNA1{[moe](T)[sp].[moe]([m5C])p.[moe](T)p.[moe](G)p.[moe]([m5C])p.[moe](T)p.d([m5C])[sp].d(A)[sp].d(G)[sp].d(T)[sp].d(T)[sp].d(A)[sp].d(G)[sp].d(G)[sp].d(T)[sp].d(T)[sp].[moe](A)p.[moe](G)[sp].[moe](T)}$$$$ (last 3' nucleoside missing)” yielded a 3 h FOB score of 4 score 0-7.
In turn, “RNA1{[moe](T)[sp].[moe]([m5C])p.[moe](T)p.[moe](G)p.[moe]([m5C])p.d(T)[sp].d(A)[sp].d(T)[sp].d(T)[sp].d(G)[sp].d(T)[sp].d(T)[sp].d(G)[sp].d(G)[sp].d(A)[sp].[moe](T)p.[moe](A)p.[moe](T)[sp].[moe]([m5C])}$$$$ (last 3' nucleoside missing)” returned a 3 h FOB score of 6.5 score 0-7.
Regarding “RNA1{[moe](T)[sp].[moe]([m5C])p.[moe](T)p.[moe](G)p.[moe]([m5C])p.d(T)[sp].d([m5C])[sp].d(A)[sp].d(G)[sp].d(T)[sp].d(T)[sp].d(A)[sp].d(G)[sp].d(G)[sp].d(T)[sp].[moe](T)p.[moe](A)p.[moe](G)[sp].[moe](T)}$$$$ (last 3' nucleoside missing)”, the 3 h FOB score is 7 score 0-7.
In turn, “RNA1{[moe](T)[sp].[moe]([m5C])p.[moe](T)p.[moe](G)p.d([m5C])[sp].d(T)[sp].d([m5C])[sp].d(A)[sp].d(G)[sp].d(T)[sp].d(T)[sp].d(A)[sp].d(G)[sp].d(G)[sp].[moe](T)p.[moe](T)p.[moe](A)p.[moe](G)[sp].[moe](T)}$$$$ (last 3' nucleoside missing)” displayed a 3 h FOB score of 4 score 0-7.
In the case of “RNA1{[moe](T)[sp].[moe]([m5C])p.[moe](T)p.[moe](T)p.[moe](A)p.d([m5C])[sp].d(T)[sp].d(G)[sp].d(A)[sp].d(T)[sp].d(T)[sp].d([m5C])[sp].d(A)[sp].d(G)[sp].d([m5C])[sp].[moe]([m5C])p.[moe](A)p.[moe](T)[sp].[moe](T)}$$$$ (last 3' nucleoside missing)”, the 3 h FOB score was determined as 4 score 0-7.
Substance “RNA1{[moe](T)[sp].[moe]([m5C])p.[moe](T)p.[moe](T)p.[moe](G)p.d([m5C])[sp].d(T)[sp].d(G)[sp].d(A)[sp].d(T)[sp].d([m5C])[sp].d(A)[sp].d([m5C])[sp].d(A)[sp].d(T)[sp].[moe](T)p.[moe](A)p.[moe]([m5C])[sp].[moe]([m5C])}$$$$ (last 3' nucleoside missing)” showed a 3 h FOB score of 0 score 0-7.
In the case of “RNA1{[moe](T)[sp].[moe]([m5C])p.[moe](T)p.[moe]([m5C])p.[moe](A)p.d(T)[sp].d(G)[sp].d(T)[sp].d(G)[sp].d(T)[sp].d(T)[sp].d(T)[sp].d(T)[sp].d(T)[sp].d(G)[sp].[moe](T)p.[moe](T)p.[moe]([m5C])[sp].[moe]([m5C])}$$$$ (last 3' nucleoside missing)”, the 3 h FOB score came out at 5 score 0-7.
In turn, “RNA1{[moe](T)[sp].[moe]([m5C])p.[moe](T)p.[moe]([m5C])p.[moe](G)p.d(G)[sp].d(G)[sp].d(T)[sp].d(A)[sp].d(T)[sp].d(A)[sp].d(T)[sp].d(A)[sp].d(A)[sp].d(A)[sp].[moe](T)p.[moe](T)p.[moe](A)[sp].[moe](A)}$$$$ (last 3' nucleoside missing)” had a 3 h FOB score of 0 score 0-7.
Substance “RNA1{[moe](T)[sp].[moe]([m5C])p.[moe](T)p.[moe]([m5C])p.[moe]([m5C])p.d(A)[sp].d(G)[sp].d(T)[sp].d(T)[sp].d(T)[sp].d(T)[sp].d([m5C])[sp].d(G)[sp].d([m5C])[sp].d([m5C])[sp].[moe]([m5C])p.[moe](G)p.[moe](T)[sp].[moe](T)}$$$$ (last 3' nucleoside missing)” yielded a 3 h FOB score of 4.7 score 0-7.
In the case of “RNA1{[moe](T)[sp].[moe]([m5C])p.[moe]([m5C])p.[moe]([m5C])p.[moe](A)p.d(T)[sp].d(T)[sp].d([m5C])[sp].d(A)[sp].d(G)[sp].d([m5C])[sp].d(A)[sp].d([m5C])[sp].d(T)[sp].d(T)[sp].[moe](A)p.[moe](G)p.[moe](G)[sp].[moe](T)}$$$$ (last 3' nucleoside missing)”, the 3 h FOB score is 3 score 0-7.
As for “RNA1{[moe](T)[sp].[moe]([m5C])p.[moe]([m5C])p.[moe]([m5C])p.[moe](A)p.d(T)[sp].d([m5C])[sp].d(A)[sp].d(T)[sp].d([m5C])[sp].d(A)[sp].d(G)[sp].d(T)[sp].d(G)[sp].d(T)[sp].[moe](G)p.[moe](T)p.[moe](G)[sp].[moe]([m5C])}$$$$ (last 3' nucleoside missing)”, the 3 h FOB score stood at 3.25 score 0-7.
